Each structure is given as a SMILES string.

This assay addresses T1, recombinant human Estrogen Receptor alpha ligand binding domain, residues 307-554 (ER alpha-LBD (GST)) (Homo sapiens, UniProt P03372).
T1 construct: made in house
T1 sequence (P03372 307-554): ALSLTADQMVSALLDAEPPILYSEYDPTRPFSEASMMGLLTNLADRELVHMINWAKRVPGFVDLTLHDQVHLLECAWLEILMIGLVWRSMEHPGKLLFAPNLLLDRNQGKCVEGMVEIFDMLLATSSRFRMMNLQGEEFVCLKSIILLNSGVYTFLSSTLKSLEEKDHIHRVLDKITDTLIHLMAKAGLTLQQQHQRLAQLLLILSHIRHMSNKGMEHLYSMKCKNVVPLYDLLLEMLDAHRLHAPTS
In words: ERα binding assay (LanthaScreen TR-FRET competition). The conditions noted are these: TR-FRET competition with Fluormone ES2 tracer, 4 hours at room temperature; single experiment or average of two or more.
By IC50 is commonly meant the point on the concentration scale where inhibition reaches its midpoint. Regarding `Cc1ncsc1-c1ccc(CNC(=O)[C@@H]2C[C@@H](O)CN2C(=O)[C@@H](NC(=O)CCCCCCCCOc2cc(F)c([C@@H]3c4[nH]c5ccccc5c4C[C@@H](C)N3CC(C)(C)F)c(F)c2)C(C)(C)C)cc1` [Example 15, (2S,4R)-1-((S)-2-(9-(3,5-Difluoro-4-((1R,3R)-2-(2-fluoro-2-methylpropyl)-3-methyl-2,3,4,9-tetrahydro-1H-pyrido[3,4-b]indol-1-yl)phenoxy)nonanamido)-3,3-dimethylbutanoyl)-4-hydroxy-N-(4-(4-methylthiazol-5-yl)benzyl)pyrrolidine-2-carboxamide], the IC50 came to 1.5 nM.

Regarding `CC(=O)O[C@@H]1C[C@@H](C(=O)NCc2ccc(-c3scnc3C)cc2)N(C(=O)[C@@H](NC(=O)COCCOCCOCCOc2cc(F)c([C@@H]3c4[nH]c5ccccc5c4C[C@@H](C)N3CC(C)(C)F)c(F)c2)C(C)(C)C)C1` [Example 34, (3R,5S)-1-((S)-2-(tert-Butyl)-14-(3,5-difluoro-4-((1R,3R)-2-(2-fluoro-2-methylpropyl)-3-methyl-2,3,4,9-tetrahydro-1H-pyrido[3,4-b]indol-1-yl)phenoxy)-4-oxo-6,9,12-trioxa-3-azatetradecanoyl)-5-((4-(4-methylthiazol-5-yl)benzyl)carbamoyl)pyrrolidin-3-yl Acetate], the IC50 turned out to be 0.9 nM.

Turning to `Cc1ncsc1-c1ccc(CNC(=O)[C@@H]2C[C@@H](O)CN2C(=O)[C@@H](NC(=O)COCCCCCOc2cc(F)c([C@@H]3c4[nH]c5ccccc5c4C[C@@H](C)N3CC(C)(C)F)c(F)c2)C(C)(C)C)cc1` [Example 18, (2S,4R)-1-((S)-2-(2-((5-(3,5-Difluoro-4-((1R,3R)-2-(2-fluoro-2-methylpropyl)-3-methyl-2,3,4,9-tetrahydro-1H-pyrido[3,4-b]indol-1-yl)phenoxy)pentyl)oxy)acetamido)-3,3-dimethylbutanoyl)-4-hydroxy-N-(4-(4-methylthiazol-5-yl)benzyl)pyrrolidine-2-carboxamide], the IC50 was determined as 0.6 nM.

For the compound `Cc1ncsc1-c1ccc([C@H](C)NC(=O)[C@@H]2C[C@@H](O)CN2C(=O)[C@@H](NC(=O)COCCCCCOc2cc(F)c([C@@H]3c4[nH]c5ccccc5c4C[C@@H](C)N3CC(C)(C)F)c(F)c2)C(C)(C)C)cc1` [Example 28, (2S,4R)-1-((S)-2-(2-((5-(3,5-Difluoro-4-((1R,3R)-2-(2-fluoro-2-methylpropyl)-3-methyl-2,3,4,9-tetrahydro-1H-pyrido[3,4-b]indol-1-yl)phenoxy)pentyl)oxy)acetamido)-3,3-dimethylbutanoyl)-4-hydroxy-N—((S)-1-(4-(4-methylthiazol-5-yl)phenyl)ethyl)pyrrolidine-2-carboxamide], the IC50 came out at 0.8 nM.

With `Cc1ncsc1-c1ccc(CNC(=O)[C@@H]2C[C@@H](O)CN2C(=O)[C@@H](NC(=O)COCCCCOc2cc(F)c([C@@H]3c4[nH]c5ccccc5c4C[C@@H](C)N3CC(C)(C)F)c(F)c2)C(C)(C)C)cc1` [Example 14, (2S,4R)-1-((S)-2-(2-(4-(3,5-Difluoro-4-((1R,3R)-2-(2-fluoro-2-methylpropyl)-3-methyl-2,3,4,9-tetrahydro-1H-pyrido[3,4-b]indol-1-yl)phenoxy)butoxy)acetamido)-3,3-dimethylbutanoyl)-4-hydroxy-N-(4-(4-methylthiazol-5-yl)benzyl)pyrrolidine-2-carboxamide], the IC50 came to 0.9 nM.

`Cc1ncsc1-c1ccc(CNC(=O)[C@@H]2C[C@@H](O)CN2C(=O)[C@@H](NC(=O)C(F)(F)OCCCOCCCOc2cc(F)c([C@@H]3c4[nH]c5ccccc5c4C[C@@H](C)N3CC(C)(C)F)c(F)c2)C(C)(C)C)cc1` [Example 119, (2S,4R)-1-((S)-2-(2-(3-(3-(3,5-Difluoro-4-((1R,3R)-2-(2-fluoro-2-methylpropyl)-3-methyl-2,3,4,9-tetrahydro-1H-pyrido[3,4-b]indol-1-yl)phenoxy)propoxy)propoxy)-2,2-difluoroacetamido)-3,3-dimethylbutanoyl)-4-hydroxy-N-(4-(4-methylthiazol-5-yl)benzyl)pyrrolidine-2-carboxamide]: the IC50 stood at 0.8 nM.

For the compound `Cc1ncsc1-c1ccc(CNC(=O)[C@@H]2C[C@@H](O)CN2C(=O)[C@@H](NC(=O)COCCCCCCCOc2ccc([C@@H]3c4[nH]c5ccccc5c4C[C@@H](C)N3CC(F)F)nc2)C(C)(C)C)cc1` [Example 6, (2S,4R)-1-((S)-2-(2-((7-((6-((1S,3R)-2-(2,2-Difluoroethyl)-3-methyl-2,3,4,9-tetrahydro-1H-pyrido[3,4-b]indol-1-yl)pyridin-3-yl)oxy)heptyl)oxy)acetamido)-3,3-dimethylbutanoyl)-4-hydroxy-N-(4-(4-methylthiazol-5-yl)benzyl)pyrrolidine-2-carboxamide], the IC50 came out at 4.2 nM.

`Cc1ncsc1-c1ccc(CNC(=O)[C@@H]2C[C@@H](O)CN2C(=O)[C@@H](NC(=O)CNCc2ccc(COc3cc(F)c([C@@H]4c5[nH]c6ccccc6c5C[C@@H](C)N4CC(C)(C)F)c(F)c3)nc2)C(C)(C)C)cc1` [Example 146]: the IC50 turned out to be 0.8 nM.

Regarding `Cc1ncsc1-c1ccc(CNC(=O)[C@@H]2C[C@@H](O)CN2C(=O)[C@@H](NC(=O)COCCCOCCCCOc2cc(F)c([C@@H]3c4[nH]c5ccccc5c4C[C@@H](C)N3CC(C)(C)F)c(F)c2)C(C)(C)C)cc1` [Example 129, (2S,4R)-1-((S)-2-(2-(3-(4-(3,5-Difluoro-4-((1R,3R)-2-(2-fluoro-2-methylpropyl)-3-methyl-2,3,4,9-tetrahydro-1H-pyrido[3,4-b]indol-1-yl)phenoxy)butoxy)propoxy)acetamido)-3,3-dimethylbutanoyl)-4-hydroxy-N-(4-(4-methylthiazol-5-yl)benzyl)pyrrolidine-2-carboxamide], the 50% inhibitory concentration (IC50) was determined as 1 nM.

On to `Cc1ncsc1-c1ccc(CNC(=O)[C@@H]2C[C@@H](O)CN2C(=O)[C@@H](NC(=O)COCCOc2ccc(COc3cc(F)c([C@@H]4c5[nH]c6ccccc6c5C[C@@H](C)N4CC(C)(C)F)c(F)c3)cc2)C(C)(C)C)cc1` [Example 5, (2S,4R)-1-((S)-2-(2-(2-(4-((3,5-Difluoro-4-((1R,3R)-2-(2-fluoro-2-methylpropyl)-3-methyl-2,3,4,9-tetrahydro-1H-pyrido[3,4-b]indol-1-yl)phenoxy)methyl)phenoxy)ethoxy)acetamido)-3,3-dimethylbutanoyl)-4-hydroxy-N-(4-(4-methylthiazol-5-yl)benzyl)pyrrolidine-2-carboxamide], for which the IC50 is 0.8 nM.

With `Cc1ncsc1-c1ccc(CNC(=O)[C@@H]2C[C@@H](O)CN2C(=O)[C@@H](NC(=O)COCCOCCCCCOc2cc(F)c([C@@H]3c4[nH]c5ccccc5c4C[C@@H](C)N3CC(C)(F)F)c(F)c2)C(C)(C)C)cc1` [Example 166, (2S,4R)-1-((S)-2-(2-(2-((5-(4-((1R,3R)-2-(2,2-Difluoropropyl)-3-methyl-2,3,4,9-tetrahydro-1H-pyrido[3,4-b]indol-1-yl)-3,5-difluorophenoxy)pentyl)oxy)ethoxy)acetamido)-3,3-dimethylbutanoyl)-4-hydroxy-N-(4-(4-methylthiazol-5-yl)benzyl)pyrrolidine-2-carboxamide], the IC50 was determined as 0.8 nM.

Values taken from patent US10519152B2, “Compounds and their use in treating cancer” (AstraZeneca AB, priority 2017, dated 2019).
